This is an account of results in ChEMBL document CHEMBL1154020, “Tricyclic indole and dihydroindole derivatives as new inhibitors of soluble guanylate cyclase” (Bioorg Med Chem Lett, 2009).

The source made the active and inactive calls. The rule behind the calls is not given here.

Assay [1] is filed under the species Rattus norvegicus. Description: Inhibition of soluble guanylate cyclase in rat aortic smooth muscle cells assessed as decrease in SNP-induced cGMP production pretreated 30 min before SNP challenge by enzyme immunoassay.
The species named for assay [2] is Rattus norvegicus. Briefly: Inhibition of particulate guanylate cyclase in rat aortic smooth muscle cells assessed as decrease in ANF-induced cGMP production at 100 uM pretreated 30 min before ANF challenge by enzyme immunoassay.
The species entered for assay [3] is Rattus norvegicus. Description: Inhibition of soluble guanylate cyclase in rat aortic smooth muscle cells assessed as decrease in cGMP production at 100 uM after 30 mins by enzyme immunoassay.
For assay [4], the species on record is Rattus norvegicus. Description: Inhibition of soluble guanylate cyclase in rat aortic smooth muscle cells assessed as decrease in SNP-induced cGMP production at 1 uM pretreated 30 min before SNP challenge by enzyme immunoassay.
The species entered for assay [5] is Rattus norvegicus. Briefly: Inhibition of soluble guanylate cyclase in rat aortic smooth muscle cells assessed as decrease in SNP-induced cGMP production at 100 uM pretreated 30 min before SNP challenge by enzyme immunoassay.

Take `CCOCn1ccc2c3oncc3ccc21`: in the assay filed under Rattus norvegicus [1], the Activity result was “Dose-dependent effect”. The result in the assay listed under Rattus norvegicus [2] and in the assay listed under Rattus norvegicus [3] was inactive.

With `CCOCn1ccc2c1CCc1cnoc1-2`, the result in the assay filed under Rattus norvegicus [4] was inactive. The outcome in the assay listed under Rattus norvegicus [5] was Active.

As to `CCOCn1ccc2c1CCc1cnn(C)c1-2`, the outcome in the assay filed under Rattus norvegicus [4] and in the assay listed under Rattus norvegicus [5] was Active.

As to `CCOCn1ccc2c1CCc1cnn(-c3ccccc3)c1-2`, in the assay listed under Rattus norvegicus [5], the outcome was Active.
